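Test compounds were applied to cells in 96-well plates for 48 hours at 5 doses. The concentration for 50% growth inhibition is given as GI50.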 Activity calls are given as the source filed them. Rule as the data show it: active = GI50 up to about 1.1 µM and inactive = higher. Square brackets hold non-standard residues; d marks the D form. Peptide text beside a SMILES is read from it. Phe(4-Cl) = N[CH](Cc1ccc(Cl)cc1)C(=O)O; 2Nal = N[CH](Cc1ccc2ccccc2c1)C(=O)O; 3Pal = N[CH](Cc1cccnc1)C(=O)O
How the values were obtained:
Experiment in all cases: NCI-60 cell line screen, 48 h
TK-10 = test system: TK-10
RXF 393 = test system: RXF 393
PC-3 = test system: PC-3
SF-539 = test system: SF-539
HCT-15 = test system: HCT-15
SK-MEL-5 = test system: SK-MEL-5
SK-MEL-28 = test system: SK-MEL-28
NCI-H23 = test system: NCI-H23
HCC 2998 = test system: HCC 2998
HOP-92 = test system: HOP-92
HCT-116 = test system: HCT-116
ACHN = test system: ACHN
A549 = test system: A549
NCI-H522 = test system: NCI-H522
NCI/ADR-RES = test system: NCI/ADR-RES
MCF7 = test system: MCF7
SN12C = test system: SN12C
COLO 205 = test system: COLO 205
OVCAR-3 = test system: OVCAR-3
K562 = test system: K562

| Compound | GI50 (TK-10) | GI50 (RXF 393) | GI50 (PC-3) | GI50 (SF-539) | GI50 (HCT-15) [µM] | GI50 (SK-MEL-5) | GI50 (SK-MEL-28) | GI50 (NCI-H23) | GI50 (HCC 2998) | GI50 (HOP-92) | GI50 (HCT-116) | GI50 (ACHN) | GI50 (A549) | GI50 (NCI-H522) | GI50 (NCI/ADR-RES) | GI50 (MCF7) | GI50 (SN12C) | GI50 (COLO 205) | GI50 (OVCAR-3) | GI50 (K562) |
| --- | --- | --- | --- | --- | --- | --- | --- | --- | --- | --- | --- | --- | --- | --- | --- | --- | --- | --- | --- | --- |
| Cc1nc(C(N)=S)sc1C(/C=C/c1ccc(Cl)c(Cl)c1)=N/NC(C)(C)C | > 100 µM (inactive) | > 100 µM (inactive) | > 100 µM (inactive) | > 100 µM (inactive) | > 100 | > 100 µM (inactive) | > 100 µM (inactive) | > 100 µM (inactive) | > 100 µM (inactive) | > 100 µM (inactive) | > 100 µM (inactive) | > 100 µM (inactive) | > 100 µM (inactive) | 75.3 µM (inactive) | > 100 µM (inactive) | > 100 µM (inactive) | > 100 µM (inactive) | > 100 µM (inactive) |  |  |
| CC1(C)CCC[C@]2(C)[C@@H](C=O)C(C=O)=CC[C@@H]12 [POLYGODIAL] | 25.9 µM (inactive) | 17.1 µM (inactive) | 27.7 µM (inactive) | 19.3 µM (inactive) | 17 | 15.6 µM (inactive) | 43.2 µM (inactive) | 28 µM (inactive) | 18.4 µM (inactive) | 20.6 µM (inactive) | 28.6 µM (inactive) | 16.9 µM (inactive) | 37.5 µM (inactive) | 15.8 µM (inactive) | 18.6 µM (inactive) | 14.7 µM (inactive) | 20.6 µM (inactive) | 18.2 µM (inactive) | 14.9 µM (inactive) |  |
| COc1ccc(S(=O)(=O)Nc2ccc(-c3csc(N4C(=O)/C(=C/c5ccccc5[N+](=O)[O-])N=C4c4ccccc4)n3)cc2)cc1Cl | 53.3 µM (inactive) | 50.8 µM (inactive) | 32.6 µM (inactive) | 80.2 µM (inactive) | 29 | 43.2 µM (inactive) | 98.2 µM (inactive) | 20.8 µM (inactive) | 22.9 µM (inactive) | 23.3 µM (inactive) | 38.8 µM (inactive) | 50.5 µM (inactive) | 33 µM (inactive) | 35.9 µM (inactive) | 86.1 µM (inactive) | 66.8 µM (inactive) | > 100 µM (inactive) | 65.8 µM (inactive) | 26 µM (inactive) | 39.5 µM (inactive) |
| C=CC[C@H]1[C@H](O[Si](C)(C)C(C)(C)C)C=CC(=O)[C@@H]1CC(=O)N(Cc1ccccc1)Cc1ccccc1 | 19.2 µM (inactive) | 6.15 µM (inactive) | 10.4 µM (inactive) | 25.1 µM (inactive) | 9.73 | 7.83 µM (inactive) | 49.5 µM (inactive) | 5.46 µM (inactive) | 20.3 µM (inactive) | 2.09 µM (inactive) | 8.2 µM (inactive) | 15 µM (inactive) | 20.5 µM (inactive) | 5.01 µM (inactive) | 10.8 µM (inactive) | 19.5 µM (inactive) | 18.8 µM (inactive) | 12.9 µM (inactive) | 15.1 µM (inactive) | 4.69 µM (inactive) |
| O=C(Nc1nc2ccc([N+](=O)[O-])cc2[n+]([O-])n1)C(F)(F)F | 44.2 µM (inactive) | 54.8 µM (inactive) | 28.2 µM (inactive) | 45.4 µM (inactive) | 16.6 | 12.5 µM (inactive) | 47.2 µM (inactive) | 26.2 µM (inactive) | 49.8 µM (inactive) | 56.1 µM (inactive) | 19.8 µM (inactive) | 22 µM (inactive) | 24.6 µM (inactive) | 21 µM (inactive) | 32.4 µM (inactive) | 20 µM (inactive) | 29.4 µM (inactive) | 4.65 µM (inactive) | > 10 µM (inactive) | 20 µM (inactive) |
| CC(=O)Oc1ccc(C2SCc3nc4ccccc4n32)cc1 (stereo not drawn) | 35.2 µM (inactive) | 24.2 µM (inactive) | 24.2 µM (inactive) | 41 µM (inactive) | 25.8 | 24.7 µM (inactive) | 52.7 µM (inactive) | 16.3 µM (inactive) | 33 µM (inactive) | 25.2 µM (inactive) | 23.3 µM (inactive) | 30.8 µM (inactive) | 32.2 µM (inactive) | 22.8 µM (inactive) | 14.8 µM (inactive) | 8 µM (inactive) | 49.8 µM (inactive) | 19.3 µM (inactive) | 24.4 µM (inactive) | 7.23 µM (inactive) |
| O=NN(CCCl)C(=O)NC1CCC(=O)NC1=O (stereo not drawn) | 379 µM (inactive) | 232 µM (inactive) | 745 µM (inactive) | 50.8 µM (inactive) | 300 | 121 µM (inactive) | 409 µM (inactive) | 277 µM (inactive) | 713 µM (inactive) | 143 µM (inactive) | 215 µM (inactive) | 428 µM (inactive) | 182 µM (inactive) | 225 µM (inactive) | 193 µM (inactive) | 330 µM (inactive) | 243 µM (inactive) | 267 µM (inactive) | 818 µM (inactive) | 153 µM (inactive) |
| CCCCCC(/C=C/[C@@H]1[C@@H](C(O)CCCCCC(=O)OC)C(=O)C[C@H]1O[Si](C)(C)C(C)(C)C)OCOCCOC (stereo partly drawn) | 16.6 µM (inactive) | 18.6 µM (inactive) | 13.8 µM (inactive) | 7.11 µM (inactive) | 7.98 | 14.5 µM (inactive) | 15.3 µM (inactive) | 15 µM (inactive) | 23 µM (inactive) | 21 µM (inactive) | 4.37 µM (inactive) | 15.3 µM (inactive) | 24.6 µM (inactive) | 3.92 µM (inactive) | 18.9 µM (inactive) | 4.76 µM (inactive) | 19.7 µM (inactive) | 18.9 µM (inactive) | 14.9 µM (inactive) | > 21 µM (inactive) |
| CC(=O)Oc1cc(C(F)(F)F)ccc1C(=O)OC1(C)OC(=O)c2ccc(C(F)(F)F)cc2O1 (stereo not drawn) | > 100 µM (inactive) | > 100 µM (inactive) | > 100 µM (inactive) | > 100 µM (inactive) | > 100 |  | > 100 µM (inactive) | > 100 µM (inactive) | > 100 µM (inactive) | > 100 µM (inactive) | > 100 µM (inactive) | > 100 µM (inactive) | > 100 µM (inactive) | > 100 µM (inactive) | > 100 µM (inactive) | > 100 µM (inactive) | 97.5 µM (inactive) | > 100 µM (inactive) | > 100 µM (inactive) | > 100 µM (inactive) |
| Cn1c2ncccc2n2c(=O)cc(O)cc12 | 45 µM (inactive) | 21.1 µM (inactive) | 56.4 µM (inactive) | > 100 µM (inactive) | 48 | > 100 µM (inactive) | 89.3 µM (inactive) | > 100 µM (inactive) | 39.4 µM (inactive) | 18.2 µM (inactive) | > 100 µM (inactive) | > 100 µM (inactive) | > 100 µM (inactive) | 44 µM (inactive) | 81.5 µM (inactive) | 33.9 µM (inactive) |  | 53 µM (inactive) | 40.8 µM (inactive) | > 100 µM (inactive) |
| CC1=NN(c2cccc(Cl)c2)C(=N/c2nc3ccccc3s2)/C1=C\c1ccccc1O | 37.7 µM (inactive) | 38.1 µM (inactive) | 20.5 µM (inactive) | 42.8 µM (inactive) | 27.6 | 19.7 µM (inactive) | 27.4 µM (inactive) | 27.5 µM (inactive) | 19.6 µM (inactive) | 24.4 µM (inactive) | 26.7 µM (inactive) | 25.6 µM (inactive) |  | 20 µM (inactive) | 24 µM (inactive) | 29.3 µM (inactive) |  |  | 19.2 µM (inactive) | 37 µM (inactive) |
| CC(=O)NC(Cc1ccc2ccccc2c1)C(=O)NC(Cc1ccc(Cl)cc1)C(=O)NC(Cc1cccnc1)C(=O)NC(CO)C(=O)NC(Cc1ccc(O)cc1)C(=O)NC(CCCN=C(N)N)C(=O)NC(CC(C)C)C(=O)NC(CCCN=C(N)N)C(=O)N1CCCC1C(=O)NC(C)C(N)=O (stereo not drawn) (Ac-[2Nal][Phe(4-Cl)][3Pal]SYRLRPA-NH2; configuration not given here) | > 100 µM (inactive) | > 100 µM (inactive) | > 100 µM (inactive) | > 100 µM (inactive) | > 100 | 94 µM (inactive) |  | > 100 µM (inactive) | > 100 µM (inactive) | > 100 µM (inactive) |  | > 100 µM (inactive) | > 100 µM (inactive) | > 100 µM (inactive) | > 100 µM (inactive) | > 100 µM (inactive) | > 100 µM (inactive) | > 100 µM (inactive) | 49.9 µM (inactive) | > 100 µM (inactive) |
| Nc1nc(Cl)cc(NCC2(CO)CC(CCc3ccccc3)C2)n1 (stereo not drawn) | > 70.5 µM (inactive) | 24.1 µM (inactive) | 73.8 µM (inactive) | > 100 µM (inactive) | > 59.2 | 0.506 µM (active) | > 100 µM (inactive) | 10.5 µM (inactive) | > 100 µM (inactive) | > 28.8 µM (inactive) |  | > 29 µM (inactive) | 9.16 µM (inactive) | 17.6 µM (inactive) | 4.14 µM (inactive) | 9.16 µM (inactive) | > 100 µM (inactive) | > 71.9 µM (inactive) | 5.07 µM (inactive) | 1.42 µM (inactive) |
| COC(=O)C1C(C(=O)OC)C1(Br)CBr (stereo not drawn) | > 100 µM (inactive) | 19.1 µM (inactive) | > 100 µM (inactive) | 40.6 µM (inactive) | 17.9 | > 99.5 µM (inactive) | 35.4 µM (inactive) | 70.1 µM (inactive) | > 100 µM (inactive) | 22.9 µM (inactive) | 39.3 µM (inactive) | 25.8 µM (inactive) | > 100 µM (inactive) | 3.54 µM (inactive) | > 100 µM (inactive) | 46.1 µM (inactive) | 27.5 µM (inactive) | 20 µM (inactive) | 89.3 µM (inactive) |  |
